# Marks after values point to notes of the source that are not given here.
# Experiments:
# [1] = test system: zebrafish embryos; conditions: exposure initiated at 3 h post-fertilization; ref Cabrera et al., 2019; cited from earlier work
# [2] = test system: C3H/HeJ mice; set-up: method as in Bade et al., 2021; conditions: 50 mg/kg/d DTG oral gavage from GD 0.5; 1 NTD affected pup in 17 litters; ref Bade et al., 2021; cited from earlier work
# [3] = test system: rabbits; conditions: 2020, cited from earlier work
# [4] = test system: LM/Bc mice; assay: DTG-NTD susceptibility, embryo phenotyping on GD 9.5, LM/Bc dams; assay type: in vivo, mouse
# Description: Breeding colonies and experimental mice were housed in Thoren micro-isolator cages with autoclaved corncob bedding and maintained on a 12-h light-dark cycle in climate-controlled AAALAC-accredited animal facilities at Creighton University. Mice were given ad libitum access to autoclaved water and pelleted irradiated rodent chow. For timed matings, nulliparous female mice were placed with a male overnight (1 male:2-3 females). The presence of a vaginal plug the next morning was considered GD 0.5. Plugged females were weighed, placed into a separate cage, and randomly assigned to a treatment group. All animal procedures were performed in accordance with the Public Health Service (PHS) policy on Humane Care and Use of Laboratory Animals and approved by the Creighton University Institutional Animal Care and Use Committee (IACUC).
# Dolutegravir (CAS 1051375-16-6, GSK1349572) was purchased from MedKoo Biosciences (Morrisville, NC). Pregnant mice were dosed with vehicle (dimethylsulfoxide: Solutol®: 50 mM N-methylglucamine in 3% mannitol [1:1:8, v:w:v]) ([Moss et al., 2015]) or DTG (500 mg/kg or 750 mg/kg) by daily oral gavage beginning on GD 0.5 and continuing until the day of sacrifice (GD 9.5). All treatments were administered in a volume of 0.1 mL/10 g bodyweight (bwt).
# The SWV and LM/Bc breeding colonies have been maintained on Envigo Rodent Chow #8904 (a soy protein-based irradiated diet) for >20 years. C3H/HeJ and C57BL/6J mice (6–10 weeks old) were immediately placed on Envigo #8904 upon arrival at Creighton University and were maintained on this diet for a minimum of 1 month prior to analysis of basal plasma and urine cations. The National Research Council (NRC) estimate for the minimum Mg^2+ requirement in adult mice is […] of diet (0.05%). Magnesium in standard rodent diets ranges between […]; the Envigo #8904 soy diet contains .3% Mg^2+ by weight ([…] the NRC requirement) and was therefore considered a ‘high’ Mg^2+ diet. Sources of Mg^2+ in the soy diet include magnesium oxide (∼20%) and Mg^2+ found naturally in grain ingredients (∼80%); it was therefore not possible to remove Mg^2+ to create a soy-based version that was Mg^2+ deficient. To test the hypothesis that low maternal plasma Mg^2+ prior to conception would increase susceptibility to DTG-induced NTDs, it was necessary to switch to casein-based purified ingredient diets with defined levels of Mg^2+ added back. The following casein-based purified ingredient diets were selected as experimental diets: TD.120,574 high Mg^2+ diet (.3% Mg^2+ oxide added to match the .3% high Mg^2+ soy-based diet); TD.98341 control Mg^2+ diet with 0.05% Mg oxide added back to match the NRC requirement; and TD.93106 Mg^2+-deficient diet (<.003%, no Mg^2+ added back). The purified casein diets met or exceeded the NRC requirements for all other minerals and vitamins, including folic acid (Supplementary Table S1: Diet Comparison). Thus, the 4 experimental diets were as follows: 1) high Mg^2+ (.3%) soy diet; 2) high Mg^2+ ([…]) casein diet; 3) control Mg^2+ (.05%) casein diet; and 4) deficient Mg^2+ (<.003%) casein diet. […] Our initial DTG teratology studies were performed in mice on the high Mg^2+ soy diet. However, our objective in the second set of experiments was to reduce pre-conception plasma Mg^2+ levels prior to DTG exposure. To accomplish this objective, weaned female mice were placed on either the high Mg^2+ casein diet or one of the 2 casein-based experimental diets with reduced Mg^2+ (control or deficient) for a minimum of 2 weeks. After this minimum period of acclimation to the experimental casein-based diets, blood and urine samples were collected for Inductively Coupled Plasma Mass Spectrometry (ICP-MS) determination of Mg^2+ (and other cations).
# Pregnant dams were anesthetized with isoflurane and sacrificed by cervical dislocation on GD 9.5. […]
# [5] = control Mg2+ (0.05%) casein diet, DTG500
# [6] = control Mg2+ (0.05%) casein diet, DTG750
# [7] = high Mg2+ (0.3%) casein diet, DTG750
# [8] = high Mg2+ (0.3%) soy diet, DTG 750 mg/kg/d oral GD 0.5-GD 9.5, average % (SD)
# [9] = high Mg2+ (0.3%) soy diet, DTG 750 mg/kg/d oral GD 0.5-GD 9.5, mean (SD)
# [10] = high Mg2+ (0.3%) soy diet, DTG 750 mg/kg/d oral GD 0.5-GD 9.5, mean (SD) per litter
# [11] = high Mg2+ soy diet, DTG500, n = 7 litters
smiles,measurement,setting,value
"C[C@@H]1CCO[C@H]2Cn3cc(C(=O)NCc4ccc(F)cc4F)c(=O)c(O)c3C(=O)N12 [DTG, Dolutegravir]",mortality,[1],Significant mortality
same,NTD-affected litters,[2],5.8%
same,DTG-related maternal or developmental toxicity,"[3]; oral doses up to 1000 mg/kg/d, GD 6 to GD 18, ref Stanislaus et al.",no significant evidence
same,NOAEL,"[3]; preclinical studies, ref Stanislaus et al.",1000 mg/kg/day
same,NTD-affected litters,[4]; [5],62%
same,NTD-affected litters / litters examined,[4]; [5],8/13
same,exencephalic embryos per litter,[4]; [5],1 to 5
same,total NTDs,"[4]; control Mg2+ (0.05%) casein diet, DTG500, of 116 implants",19
same,NTD-affected litters,[4]; [6],85%
same,NTD-affected litters / litters examined,[4]; [6],11/13
same,exencephalic embryos per litter,[4]; [6],1 to 6
same,total NTDs,"[4]; control Mg2+ (0.05%) casein diet, DTG750, of 105 implants",33
same,NTD-affected litters,[4]; [7],19%
same,exencephalic embryos per affected litter,[4]; [7],1
same,mean rate NTDs/litter,[4]; [7],2%
same,NTD-affected litters / litters examined,"[4]; high Mg2+ (0.3%) casein diet, DTG750, 90 implants total",3/16
same,"Dev delay/implants, index value",[4]; [8],8.1% (17.76)
same,"NTDs/embryos, index value",[4]; [8],20.9% (23.65)^**
same,"NTDs/implants, index value",[4]; [8],17.7% (20.63)^**
same,"Resorptions/implants, index value",[4]; [8],11.5% (15.75)
same,Implants per litter,[4]; [9],8.74 (2.47)
same,Resorptions per litter,[4]; [9],0.95 (1.27)
same,Dev. delayed,[4]; [10],0.58 (0.96)
same,NTDs,[4]; [10],1.47 (1.74)^**
same,Total viable embryos,[4]; [10],7.79 (2.76)
same,NTDs observed,"[4]; high Mg2+ soy diet, DTG 500 mg/kg/d (DTG500), n = 7 litters",No NTDs
same,developmental delays,[4]; [11],no developmental delays
same,implants (total),[4]; [11],71
same,resorptions (total),[4]; [11],9
same,viable embryos developmentally normal (total),[4]; [11],62
same,NTD-affected litters / litters examined,"[4]; high Mg2+ soy diet, DTG750",12/19
same,NTDs/affected litter,"[4]; high Mg2+ soy diet, DTG750",1–6
same,total pups with exencephaly,"[4]; high Mg2+ soy diet, DTG750, out of 166 total implants",28

# Reference: article PMC10292217, “Gene-nutrient interactions that impact magnesium homeostasis increase risk for neural tube defects in mice exposed to dolutegravir” (Frontiers in Cell and Developmental Biology, 2023)
